Converted amounts (≈) assume the structure as drawn. Like-named read-outs stand apart in the source and are kept apart here.
How the values were obtained:
CYP3A4 = target: T1, CYP3A4 (Homo sapiens, UniProt P08684); assay: CYP inhibition in HLM, CYP3A4; assay type: in vitro ADME; conditions: read-out: CYP inhibition (IC50 um) 3A
T1 construct: from tissue; host or cells: liver microsomes (HLM)
Protocol: (§1) 0.1 M potassium phosphate buffer (K-buffer), pH 7.4 was preheated. K-buffer was prepared by mixing 9.5 mL Stock A into 40.5 mL Stock B. The total volume was brought to 500 mL with Milli-Q water. The buffer was titrated with KOH or H3PO4 to pH 7.4. Stock A (1 M monobasic potassium phosphate) was prepared by adding 136.5 g of monobasic potassium phosphate into 1 L of Milli-Q water. Stock B (1 M dibasic potassium phosphate) was prepared by adding 174.2 g of dibasic potassium phosphate in 1 L of Milli-Q water.
(§2) Serial dilution for test compound and reference inhibitors (400×) was prepared in a 96-well plate. 8 μL of 10 mM test compounds was transferred to 12 μL of ACN. Inhibitor spiking solution was prepared for CYP1A2, CYP2C9 and CYP2D6 in cocktail by adding 12 μL of 1 mM α-Naphthoflavon, 10 μL of 40 mM Sulfaphenazole, 10 μL of 10 mM Quinidine, and 8 μL of DMSO. Individual inhibitor spiking solution for CYP3A4 and CYP2C19 was prepared by adding 8 μL of DMSO stock to 12 μL of ACN. 1:3 serial dilutions were performed in DMSO:ACN mixture (v/v: 40:60).
(§3) NADPH cofactor was prepared by dissolving 66.7 mg NADPH in 10 mL 0.1 M K-buffer, pH7.4. 4×substrate (2 mL for each isoform) was prepared. HLM was added were required on ice. 0.2 mg/mL HLM solution was prepared using 10 μL of 20 mg/mL to 990 μL of 0.1 M K-buffer on ice. 400 μL of 0.2 mg/mL HLM were added to the assay wells and then 2 μL of 400×test compound set were added into the designated wells on ice. 200 μL of 0.2 mg/mL HLM was added to the assay wells and followed by 1 μL of serially diluted reference inhibtor solution into the designated wells on ice. The following solutions were added in duplicated in a 96-well plate on ice: 30 μL of 2×test compound and reference compound in 0.2 mg/mL HLM solution and 15 μL of 4×substrate solution. The 96-well assay plate and NADPH solution were pre-incubated at 37° C. for 5 minutes. 15 μL of pre-warmed 8 mM NADPH solution was added to into the assay plates to initiate the reaction. The assay plate was incubated at 37° C. 5 mins, 10 mins, and 45 mins. […]

Thermodynamic solubility = assay type: physicochemical; conditions: aqueous buffer, thermodynamic from solid, PBS(Ph 7.4), equilibrated over night at room temperature
Protocol: Assay buffer was added into compound powder to make 4 mg/ml solution. Sample tubes were shaken for 1 hour at 1000 rpm, then equilibrated over night at room temperature. Samples were centrifuged for 10 minutes at 12000 rpm to precipitate out un-dissolved particles. Supernatants were transferred to new tubes. Concentrations of the supernatants after centrifugation were determined by LCMSMS detection.

CYP2C9 = target: T2, CYP2C9 (Homo sapiens, UniProt P11712); assay: CYP inhibition in HLM, CYP2C9; assay type: in vitro ADME; conditions: read-out: CYP inhibition (IC50 um) 2C9
T2 construct: from tissue; host or cells: liver microsomes (HLM)
T2 sequence (P11712 whole entry): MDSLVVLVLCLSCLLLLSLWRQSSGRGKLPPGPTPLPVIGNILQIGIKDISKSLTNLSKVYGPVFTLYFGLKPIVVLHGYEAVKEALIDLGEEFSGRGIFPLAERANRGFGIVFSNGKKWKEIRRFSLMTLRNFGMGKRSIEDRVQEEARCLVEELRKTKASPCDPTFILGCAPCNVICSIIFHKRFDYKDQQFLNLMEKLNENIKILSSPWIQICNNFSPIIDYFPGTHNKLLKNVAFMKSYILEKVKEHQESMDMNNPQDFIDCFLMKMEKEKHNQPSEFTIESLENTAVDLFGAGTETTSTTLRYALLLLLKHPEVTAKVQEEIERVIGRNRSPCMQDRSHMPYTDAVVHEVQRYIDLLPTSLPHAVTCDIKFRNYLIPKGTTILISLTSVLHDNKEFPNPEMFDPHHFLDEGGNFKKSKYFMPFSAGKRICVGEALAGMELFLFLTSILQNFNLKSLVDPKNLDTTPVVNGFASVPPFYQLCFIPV
Protocol: as §1, §2, §3

[1] = Plasma protein binding by dialysis; assay type: in vitro ADME; conditions: rat plasma; for Protein Binding Fu(%) / fraction unbound at 5 h, 1 μM: 1 μM, 5 hours dialysis at 37° C.; for fraction unbound at 5 h, 1 μM: read-out: Protein Binding Fraction unbound (fu) (converted)
Protocol: The following solutions were prepared: Solution A (0.5 mM) 10 μL of 10 mM stock solution was added into 190 μL of DMSO and Solution B (0.02 mM): 8 μL of Solution A was added into 192 μL of 0.05 M sodium phosphate buffer. The final DMSO concentration in Solution B is 4%.
A 96-well plate was preloaded with 380 μL aliquots of plasma in the wells designated for plasma and buffer, respectively. 20 μL of Solution B (0.02 mM of test and reference compounds) was spiked into the pre-loaded plasma in the 96-well plate. The final test concentration was 1 μM containing 0.2% DMSO.
Aliquots of 100 μL of blank dialysis buffer were applied to the receiver side of dialysis chambers. Next aliquots of 100 μL of the plasma spiked with test and reference compounds were applied to the donor side of the dialysis chambers. Blank buffer was added to the receiver first and the buffer and plasma chambers were clearly marked to avoid cross contamination.
Aliquots of 25 μL of plasma spiked with test and reference compounds were placed in 96-well sample preparation plates as t=0 min plasma samples. The aliquots were mixed with the same volume of blank buffer (50:50, v/v). The samples were quenched with 200 μL of acetonitrile containing internal standard (IS). The dialysis block was covered with a plastic lid and the entire apparatus was placed on a shaker (60 rpm) for 5 hours at 37° C.
25 μL aliquot from both the donor sides and receiver sides of the dialysis apparatus were placed into new sample preparation plates and mixed with the same valune of opposite matrixes (blank buffer to plasma and vice versa). The sample was quenched with 200 μL acetonitrile containing internal standard. All the samples from 0 hour to 5 hours were vortexed at 600 rpm for 10 minutes followed by centrifugation at 5594 g for 15 minutes (Thermo Multifuge×3R). 50 μL of the supernatant was transferred to a new 96-well plate and the sample was mized with 50 μL of Mili-Q water. The sample plate was covered and stored in a −20° C. freezer. The samples were subsequently analyzed by LC/MS/MS.

Solubility = assay type: physicochemical; conditions: aqueous buffer, kinetic from dmso stock; PBS(Ph 7.4), 1 hour shaking at room temperature; read-out: Solubility SolubilityU (um)
Protocol: 10 μL test compound was added to 990 μL buffer. Sample tubes were shaken for 1 hour (1000 rpm) at room temperature. Samples were centrifuged for 10 minutes at 1200 rpm to precipitate un-dissolved particles. Supernatants were collected for LCMSMS or LC-UV analysis.

[2] = read-out: Thermodynamic Solubility Solubility
[3] = read-out: Thermodynamic Solubility Solubility (um)

T1 sequence (P08684 whole entry): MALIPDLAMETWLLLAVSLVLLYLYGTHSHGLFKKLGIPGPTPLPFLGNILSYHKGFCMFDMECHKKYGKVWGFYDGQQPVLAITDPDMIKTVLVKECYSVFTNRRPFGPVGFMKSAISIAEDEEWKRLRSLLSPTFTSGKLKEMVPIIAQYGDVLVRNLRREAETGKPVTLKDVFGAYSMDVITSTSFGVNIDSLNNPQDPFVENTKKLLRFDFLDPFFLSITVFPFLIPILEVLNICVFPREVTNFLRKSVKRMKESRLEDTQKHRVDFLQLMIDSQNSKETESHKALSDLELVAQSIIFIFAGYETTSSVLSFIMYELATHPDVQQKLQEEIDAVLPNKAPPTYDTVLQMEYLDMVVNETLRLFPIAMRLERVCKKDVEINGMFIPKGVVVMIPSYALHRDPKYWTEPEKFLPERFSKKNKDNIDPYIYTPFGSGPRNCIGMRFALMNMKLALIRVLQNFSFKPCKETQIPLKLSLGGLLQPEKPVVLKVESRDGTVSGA

SMILES	IC50 (CYP3A4) [µM]	solubility thermodynamic (Thermodynamic solubility; [2]) [µg/mL]	solubility thermodynamic (Thermodynamic solubility; [3]) [µM]	IC50 (CYP2C9) [µM]	Protein Binding Category [1]	recovery at 5 h, 1 µM [1] [%]	Protein Binding Fu(%) [1] [%]	fraction unbound at 5 h, 1 μM [1]	solubility at 1 h (Solubility) [µM]
CC(C)(NC(=O)[C@H]1[C@@H]2CNC[C@H]1C2)c1nc(C2CC2)c2ccccn12 [Compound 9, (1R,5S,6r)-N-(2-(1-cyclopropylimidazo[1,5-a]pyridin-3-yl)propan-2-yl)-3-azabicyclo[3.1.1]heptane-6-carboxamide]	> 10	2250	6000	> 10	Moderate	68.2	40.9	0.409	130.5 ± 0.02 (≈ 44.2 µg/mL)
CC(C)(NC(=O)[C@H]1[C@@H]2CNC[C@H]1C2)c1ncc2c(Cl)cccn12 [Compound 7, (1R,5S,6r)-N-(2-(8-chloroimidazo[1,5-a]pyridin-3-yl)propan-2-yl)-3-azabicyclo[3.1.1]heptane-6-carboxamide]	> 10	1680	4440	> 10	Moderate	96.6	37.8	0.378	101.75 ± 0.03 (≈ 33.9 µg/mL)
CC(C)(NC(=O)[C@H]1[C@@H]2CNC[C@H]1C2)c1ncc2c(Br)cccn12 [Compound 8, (1R,5S,6r)-N-(2-(8-bromoimidazo[1,5-a]pyridin-3-yl)propan-2-yl)-3-azabicyclo[3.1.1]heptane-6-carboxamide]	> 10	2080	4920	> 10	Moderate	103	28.16	0.282	91.6 (≈ 34.6 µg/mL)
